From ChEMBL document CHEMBL3244019, “Chemical and biological studies of 1-(2,5-dihydroxy-4-methylphenyl)-2-aminopropane, an analogue of 6-hydroxydopamine” (J Med Chem, 1979) come the findings set out here.

A short description of data set [1]: Half life in rabbit liver microsomes assessed as compound auto-oxidation at 37 uM. In kind it is ADME, Oryctolagus cuniculus. On the technique in general: Liver microsomes are vesicles of endoplasmic reticulum, rich in cytochrome P450 enzymes.
Data set [2] can be described thus: Half life in rabbit liver homogenates with 13 ug of protein per ml assessed as compound auto-oxidation at 37 uM. The class given is ADME, tissue-based, Oryctolagus cuniculus. The settings on record: liver homogenate.
Data set [3] in a line: Metabolic stability in rabbit liver homogenates with 90 ug of protein per ml assessed as compound auto-oxidation at 37 uM after 15 mins. The following applies: tissue homogenate, 0.25 h. The class given is ADME, tissue-based, Oryctolagus cuniculus.
The nature of data set [4]: Half life of the compound assessed as compound auto-oxidation in 0.1 M buffer at 37 uM at pH 7.4. The class given is physicochemical.
Data set [5] can be described thus: Half life of the compound in 0.1 M metal-free buffer assessed as compound auto-oxidation at 37 uM at pH 7.4. In kind it is physicochemical.
The target of data set [6] is T1, Albumin (Bos taurus, UniProt P02769). As to the kind of experiment: Covalent binding affinity to bovine serum albumin at 4.8 mM after 1 hr by combustion-LSC method in presence of DDQ relative to control. In kind it is ADME. The settings on record: cattle, 4800 µM.
The target of data set [7] is T1, Albumin. As to the kind of experiment: Covalent binding affinity to bovine serum albumin assessed per mol of BSA at 4.8 mM after 1 hr by combustion-LSC method. The class given is ADME. The settings on record: cattle, 4800 µM.
Data set [8] in a line: Covalent binding in rabbit liver microsomal macromolecules at 60 uM after 15 mins in presence of NADPH. In kind it is ADME, Oryctolagus cuniculus. The following applies: microsomes, 0.25 h.
Another data set concerns Brain. As to the kind of experiment: Drug uptake in Sprague-Dawley rat brain at 6.6 mg, iv after 2 hrs. The class given is ADME, organism-based. The following applies: in vivo.

T1 sequence (P02769 whole entry): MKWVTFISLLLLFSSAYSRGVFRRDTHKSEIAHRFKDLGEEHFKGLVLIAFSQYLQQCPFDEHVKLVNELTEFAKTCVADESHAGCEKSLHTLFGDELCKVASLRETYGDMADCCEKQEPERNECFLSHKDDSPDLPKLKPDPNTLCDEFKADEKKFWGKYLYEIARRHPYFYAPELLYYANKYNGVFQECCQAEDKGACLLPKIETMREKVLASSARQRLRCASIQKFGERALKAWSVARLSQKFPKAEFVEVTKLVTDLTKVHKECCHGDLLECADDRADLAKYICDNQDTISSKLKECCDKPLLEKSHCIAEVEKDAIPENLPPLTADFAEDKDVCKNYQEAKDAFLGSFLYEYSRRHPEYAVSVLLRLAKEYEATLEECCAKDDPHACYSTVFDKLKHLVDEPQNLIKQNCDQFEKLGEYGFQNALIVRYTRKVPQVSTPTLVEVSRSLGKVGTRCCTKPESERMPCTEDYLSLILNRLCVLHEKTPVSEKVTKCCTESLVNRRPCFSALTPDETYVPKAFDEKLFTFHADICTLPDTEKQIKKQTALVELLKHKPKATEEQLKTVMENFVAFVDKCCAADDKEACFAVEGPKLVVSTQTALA

On to `Cc1cc(O)c(CC(C)N)cc1O` (centres undefined), for which the half-life – broadly, the time in which the quantity being followed falls by half – at 37 µM in data set [1] is 100 min; in data set [2] it was 70 min; in [4], 10 min; in data set [5] it was 180 min. For the same compound, in data set [3], the Stability entry is “Stable”.

As to `[3H]C([3H])([3H])C(N)C([3H])([3H])c1cc(O)c(C)cc1O` (centres undefined), the “fold change (FC)” value on Albumin [6] worked out at 2. Further, at Albumin [7], the PB was 0.12 equiv.

Take `[3H]C([3H])([3H])C(N)C([3H])([3H])c1cc(OC)c(C)cc1OC` (centres undefined): the Activity in data set [8] worked out at 0.2%.

In the data set with Brain, `[3H]C1C2=CC(=O)C(C)=CC2=NC1C` (centres undefined) yielded a Drug uptake of 0.05%.
